Source: patent publication US9034922B2, “Composition for maintaining function of platelets” (THE UNIVERSITY OF TOKYO, priority 2010, dated 2015)

Legend:
[1] = system: human peripheral blood-derived platelets (ADAM17-mediated GPIbα shedding); assay: Function-maintaining effect on human peripheral blood-derived washed platelets with CCCP (flow cytometry CD41/CD42b); assay type: cell-based; conditions: Test Example 13; 100 μM CCCP, 37° C., 24 hours; S-45457 50 μM, S-45282 5 μM, p38 inhibitors 40 μM
Description: Specifically, according to <Protocol 2> illustrated in FIG. 6, first, ACD was added to human peripheral blood obtained by collecting blood at a ratio of 1:10, and centrifuged at 900 rpm for 10 minutes without a break. The supernatant obtained by the centrifugation was further centrifuged at 1500 rpm for 10 minutes without a break, and then the supernatant was removed. The precipitate thus obtained was suspended in a Tyrode-HEPES buffer (not containing calcium). The number of platelets in the suspension was counted, and the suspension (Washed Platelet) was adjusted to contain 5×10^7 to 1×10^8 of platelets/200 μL of the Tyrode-HEPES buffer (not containing calcium). […] After incubation at 37° C. for 24 hours, the numbers of CD41(+)CD42b(+) and CD41(+)CD42b(−) were counted by flow cytometry.
After incubation at 37° C. for 24 hours, a dot plot analysis on CD41(+) and CD42b(+) was conducted by flow cytometry.
After incubation at 37° C. for 24 hours and flow cytometry analysis, a percentage of CD41(+)CD42b(+) in the platelets was calculated.
After incubation at 37° C. for 24 hours, a total number of platelets and the number of CD42b(+) were counted by flow cytometry, and percentage of CD42b(+) in the platelets was calculated.
After incubation at 37° C. for 24 hours, by flow cytometry, a dot plot analysis on CD41(+) and CD42b(+) was conducted.

ADAM17 = biological target: T1, ADAM17 (Homo sapiens, UniProt P78536); assay: ADAM17 inhibition experiment (fluorescent synthetic substrate); assay type: biochemical; conditions: from Table 3
T1 construct: made in house; host or cells: mammalian cells or insect cells
T1 sequence (P78536 215-824): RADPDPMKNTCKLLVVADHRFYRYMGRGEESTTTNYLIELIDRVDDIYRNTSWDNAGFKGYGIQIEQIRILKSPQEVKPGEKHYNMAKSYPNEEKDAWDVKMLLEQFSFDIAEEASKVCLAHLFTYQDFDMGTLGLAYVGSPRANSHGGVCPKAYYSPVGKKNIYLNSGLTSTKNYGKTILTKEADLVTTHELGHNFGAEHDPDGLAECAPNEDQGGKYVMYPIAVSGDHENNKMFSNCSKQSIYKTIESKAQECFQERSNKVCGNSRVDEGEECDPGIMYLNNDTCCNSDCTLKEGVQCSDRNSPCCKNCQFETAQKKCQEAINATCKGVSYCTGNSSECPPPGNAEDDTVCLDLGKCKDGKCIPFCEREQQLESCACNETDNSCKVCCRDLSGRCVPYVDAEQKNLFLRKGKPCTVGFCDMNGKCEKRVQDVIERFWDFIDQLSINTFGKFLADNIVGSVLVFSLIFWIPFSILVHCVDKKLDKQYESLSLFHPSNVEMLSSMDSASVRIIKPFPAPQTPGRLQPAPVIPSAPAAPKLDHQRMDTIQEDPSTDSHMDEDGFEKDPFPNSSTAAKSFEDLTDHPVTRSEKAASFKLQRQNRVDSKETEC
Description: The cDNA was incorporated into an expression vector. Then, this vector was transfected into mammalian cells or insect cells, and ADAM17 was expressed and obtained.
Next, the activity of ADAM17 was measured, as follows in the presence or absence of the test substances, in which obtained ADAM17 was used as an enzyme, and a fluorescent synthetic substrate Nma (N-methyl anthranilate)-[…]Dnp (dinitrophenyl)-D-Arg-NH2 containing an ADAM17-cleavage sequence of membrane-bound TNF was used as a substrate.
Specifically, 90 μL of 14 units of an enzyme solution (1 unit is defined as an amount of enzyme degrading […] of the substrate in 1 minute at 25° C.) prepared with Assay Buffer A (50 mmol/L Tris-HCl buffer (pH 7.5) containing 200 mmol/L sodium chloride, 5 mmol/L calcium chloride, 10 μmol/L zinc sulfate, and 2 mg/mL bovine serum albumin) was mixed with 90 μL of the fluorescent synthetic substrate adjusted to be 20 μmol/L with Assay Buffer B (50 mmol/L Tris-HCl buffer (pH 7.5) containing 200 mmol/L sodium chloride, 5 mmol/L calcium chloride, 10 μmol/L zinc sulfate, and 0.05% PLURONIC F-68), and allowed for reaction at 37° C. for 1.5 hours. Thereafter, the enzyme activity was determined by measurement using a fluorometer (Fluoroskan Ascent) under conditions of an excitation wavelength of 355 nm and a measurement wavelength of 460 nm. Then, an inhibition rate was obtained based on the enzyme activities in the presence and absence of the test compounds, and the 50% inhibitory concentration (IC50) was calculated.
A disintegrin and metalloproteinase 17 (ADAM17, TACE) (used was one prepared at Kaken Pharmaceutical Co., Ltd. by employing the genetic recombination in the same way as in Test Example 3. Note that, the same as in Test Example 3, 1 unit is defined as an amount of enzyme degrading 1 pmol of substrate in 1 minute at 25° C.)
TACE substrate (the same as one used in Test Example 3): excitation wavelength at 355 nm, emission wavelength at 460 nm
The enzyme reaction was carried out using the enzymes and substrates. Specifically, if necessary, the enzyme was activated in advance with APMA (final concentration 1 mmol/L, p-aminophenylmercuric acetate, manufactured by Sigma-Aldrich Co., A9563) according to information from the manufacturer. Then, in a 96-well plate for fluorescence measurement, 90 μL of an enzyme solution prepared with Assay Buffer A (50 mmol/L Tris-HCl buffer (pH 7.5) containing 200 mmol/L sodium chloride, 5 mmol/L calcium chloride, 10 μmol/L zinc sulfate, and 2 mg/mL bovine serum albumin) was mixed with 90 μL of the substrate adjusted to be 20 μmol/L with Assay Buffer B (50 mmol/L Tris-HCl buffer (pH 7.5) containing 200 mmol/L sodium chloride, 5 mmol/L calcium chloride, 10 μmol/L zinc sulfate, and 0.05% PLURONIC F-68), and incubated for reaction at 25° C. or 37° C. for several hours. Moreover, the fluorescence intensities before and after the reaction were measured using a fluorometer to determine the enzyme activity. An inhibition rate was obtained based on the enzyme activities in the presence and absence of the test substances, and the 50% inhibitory concentration (IC50) was calculated.

[2] = system: human peripheral blood platelets adhering to VWF; assay: Adhesion ability of platelets to VWF-coated flow chamber; assay type: cell-based; conditions: Test Example 15; platelets incubated with 15 μM S-45457 and 100 μM CCCP, 37° C., 24 hours; wall shear rate 1500 S^−1
Description: Then, the supernatant was removed. The precipitate thus obtained was suspended in a Tyrode HEPES Ca(−) buffer, added with 100 μM CCCP and simultaneously added with one of either DMSO or 15 μM S-45457 and followed by incubation at 37° C. for 24 hours. Note that, in this experiment, one obtained by adding CCCP and DMSO and the subsequent incubation was prepared as a negative control, while one obtained without the addition or the incubation treatments was prepared as a positive control.
Further, after the incubation (in the case of the positive control, without incubation), the suspension was added with TMRE (tetramethylrhodamine ethyl ester perchlorate) having been diluted to 1/2000 and incubated at room temperature for 15 minutes to label the platelets with fluorescence. […]
Next, each of fluorescence-labelled platelet samples was added to and mixed with a whole blood sample of collected human peripheral blood anticoagulated with argatroban (thrombin inhibitor) so that the number of platelets of the fluorescence-labelled platelet sample was 10% of the whole blood platelets. […] The fluorescence-labelled platelets which formed a thrombus were visualized using an inverted stage epifluorescence video microscope system (DM IRB, manufactured by Leica). […] Further, a percentage of surface area covered by platelets was calculated using Image-J software (NIH Image). […]

Structure (SMILES): CC#CCOc1ccc(S(=O)(=O)CC(c2ccc(CN(CC)CC)cc2)N(O)C=O)cc1 (centres unmarked) [Compound I-1, N-[2-(4-But-2-ynyloxybenzenesulfonyl)-1-(4-diethylaminomethylphenyl)ethyl]-N-hydroxyformamide]
- function-maintaining effect on human peripheral blood-derived platelets (dot plot CD41/CD42b) [1]: strong function-maintaining effect on human peripheral blood-derived platelets but not as strong as S-45457
- specificity to ADAM17 in comparison with metalloproteinases other than ADAM17 (ADAM17): high specificity to ADAM17

Structure (SMILES): CC#CCOc1ccc(S(=O)(=O)CC(c2ccc(CNS(C)(=O)=O)cc2)N(O)C=O)cc1 (centres unmarked) [Compound I-4, N-{4-[2-(4-But-2-ynyloxybenzenesulfonyl)-1-(formylhydroxyamino)ethyl]benzyl}methanesulfonamide]
- function-maintaining effect on human peripheral blood-derived platelets (dot plot CD41/CD42b) [1]: suppresses ADAM17-mediated GPIbα (CD42b) shedding
- specificity to ADAM17 in comparison with metalloproteinases other than ADAM17 (ADAM17): high specificity to ADAM17
- percentage of surface area covered by platelets [2]: high percentage of surface area covered by the platelets in comparison with the result of the negative control
